Experiments:
FtsZ2-1 = biological target: T1, FtsZ2-1 (Physcomitrium patens, UniProt O49922); assay: malachite green phosphate release GTPase assay; assay type: biochemical; conditions: 1 mM GTP, 7.5 µM protein, 37.5 mM glycine pH 10, 100 mM KCl, 5 mM MgCl2, 5% glycerol, 25 °C, 10 min
T1 construct: gene ftsZ 2-1; lacks N-terminal transit peptide (42 aa, TargetP-2.0); N-terminal His6-SUMO tag cleaved with Ulp1; codon-optimised, expressed in E. coli NiCo; start 43 follows from the removed 42 aa

FtsZ1-2 = biological target: T2, FtsZ1-2 (Physcomitrium patens, UniProt A9SRP3); assay: malachite green phosphate release GTPase assay; assay type: biochemical; conditions: 1 mM GTP, 7.5 µM protein, 37.5 mM glycine pH 10, 100 mM KCl, 5 mM MgCl2, 5% glycerol, 25 °C, 10 min
T2 construct: gene LOC112295762; lacks N-terminal transit peptide (86 aa, TargetP-2.0); N-terminal His6-SUMO tag cleaved with Ulp1; codon-optimised, expressed in E. coli NiCo; start 87 follows from the removed 86 aa
T2 sequence (A9SRP3 entry or part of it): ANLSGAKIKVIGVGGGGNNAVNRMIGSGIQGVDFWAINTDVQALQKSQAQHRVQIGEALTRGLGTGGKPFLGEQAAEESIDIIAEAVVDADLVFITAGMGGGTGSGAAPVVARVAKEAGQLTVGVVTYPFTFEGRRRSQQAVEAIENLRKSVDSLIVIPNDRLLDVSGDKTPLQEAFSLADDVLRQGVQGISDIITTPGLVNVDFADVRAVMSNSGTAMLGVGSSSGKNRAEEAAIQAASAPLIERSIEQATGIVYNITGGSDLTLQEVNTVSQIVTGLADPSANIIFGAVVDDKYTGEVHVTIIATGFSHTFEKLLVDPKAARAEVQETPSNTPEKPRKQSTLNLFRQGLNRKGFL

T1 sequence (O49922 entry or part of it): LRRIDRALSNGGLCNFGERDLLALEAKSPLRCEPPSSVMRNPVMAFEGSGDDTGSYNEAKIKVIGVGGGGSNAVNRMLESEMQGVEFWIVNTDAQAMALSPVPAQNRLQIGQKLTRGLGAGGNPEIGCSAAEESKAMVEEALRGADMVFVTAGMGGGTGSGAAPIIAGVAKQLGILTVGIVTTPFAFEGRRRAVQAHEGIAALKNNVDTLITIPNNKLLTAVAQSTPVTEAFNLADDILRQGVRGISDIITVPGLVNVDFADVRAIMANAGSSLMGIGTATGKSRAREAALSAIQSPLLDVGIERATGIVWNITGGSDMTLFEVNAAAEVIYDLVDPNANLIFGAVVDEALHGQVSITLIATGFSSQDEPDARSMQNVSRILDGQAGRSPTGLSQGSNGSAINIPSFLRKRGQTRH

Compound: Nc1nc2c(ncn2[C@@H]2O[C@H](COP(=O)(O)OP(=O)(O)OP(=O)(O)O)[C@@H](O)[C@H]2O)c(=O)[nH]1 [GTP]
- malachite green phosphate release GTPase assay (FtsZ2-1): Both FtsZ proteins exhibited low but significant GTPase activities.
- malachite green phosphate release GTPase assay (FtsZ1-2): Both FtsZ proteins exhibited low but significant GTPase activities.
